In general, IC50 refers to the concentration that inhibits the measured activity by half.

The test has as its target T1, full-length SARM1 (FL-SARM1) (Homo sapiens, UniProt Q6SZW1).
T1 sequence (Q6SZW1 28-724): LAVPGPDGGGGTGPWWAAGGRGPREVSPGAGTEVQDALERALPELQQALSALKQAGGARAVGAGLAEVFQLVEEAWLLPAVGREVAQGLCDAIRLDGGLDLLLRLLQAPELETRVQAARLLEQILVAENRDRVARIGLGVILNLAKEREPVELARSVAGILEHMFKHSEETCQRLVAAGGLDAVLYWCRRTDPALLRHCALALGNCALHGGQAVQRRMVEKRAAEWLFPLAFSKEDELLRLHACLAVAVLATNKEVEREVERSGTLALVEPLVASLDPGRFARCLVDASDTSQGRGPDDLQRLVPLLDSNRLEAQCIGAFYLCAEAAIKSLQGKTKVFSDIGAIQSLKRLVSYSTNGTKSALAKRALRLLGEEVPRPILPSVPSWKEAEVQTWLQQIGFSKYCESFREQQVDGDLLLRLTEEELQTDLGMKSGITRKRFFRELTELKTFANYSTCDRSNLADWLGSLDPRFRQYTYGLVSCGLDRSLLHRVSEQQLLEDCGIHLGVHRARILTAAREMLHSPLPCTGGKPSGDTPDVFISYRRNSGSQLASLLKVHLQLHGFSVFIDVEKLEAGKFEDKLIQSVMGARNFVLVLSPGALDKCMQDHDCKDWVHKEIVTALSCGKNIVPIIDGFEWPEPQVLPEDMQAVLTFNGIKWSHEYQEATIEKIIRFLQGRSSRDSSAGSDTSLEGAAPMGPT
The experiment in a line: FL-SARM1 cellular lysate assay (NAD/NADH-Glo detection of remaining NAD+, NMN-activated).

The mark [1] stands for this setting: Activity (IC50 class), 11 point curve.
The mark [2] stands for this setting: Activity (μM) (IC50), 11 point curve.
[3] abbreviates: read-out: Activity (IC50 class), 11 point curve.

Molecules are shown by their SMILES. Where two headings read alike, the source gives them in different places.

As to `Cc1ccc(NC(=O)[C@@H]2C[C@H](C(F)(F)F)CN2c2ncccn2)cc1-c1cccnn1` [Example 174, (2S,4S)—N-(4-methyl-3-(pyridazin-3-yl)phenyl)-1-(pyrimidin-2-yl)-4-(trifluoromethyl)pyrrolidine-2-carboxamide], the concentration for half-maximal inhibition (IC50) under setting [1] was above 10 µM and half-maximal inhibition under setting [2] (IC50) required 25 µM.
As for `Cc1ccc(NC(=O)C(C)(C)C)cc1-c1ccccn1` [Example 141, 2,2-dimethyl-N-(4-methyl-3-pyridin-2-ylphenyl)propanamide], the concentration for half-maximal inhibition (IC50) is above 10 µM under setting [1] and 19 µM under setting [2].
For the compound `Cc1ccc(NC(=O)[C@H]2CC[C@@H](C)CN2c2ncccn2)cc1-c1ncccn1` (single isomer, unassigned) [Example 205, cis-5-methyl-N-(4-methyl-3-(pyrimidin-2-yl)phenyl)-1-(pyrimidin-2-yl)piperidine-2-carboxamide], 0.3 µM corresponded to half-maximal inhibition under setting [2] (IC50) and the IC50 under setting [3] was 0.0001 to 1 µM.
Take `CCOC(C)[C@@]12CC(C[C@@H](C)C1)N2C(=O)Nc1ccc(C)c(-c2ncc(F)cn2)c1` (single isomer, unassigned) [Example 189, cis-1-(1-ethoxyethyl)-N-(3-(5-fluoropyrimidin-2-yl)-4-methylphenyl)-3-methyl-6-azabicyclo[3.1.1]heptane-6-carboxamide]: the IC50 under setting [1] is 1 to 10 µM and the IC50 under setting [2] is 1.9 µM.
Turning to `CCc1ccc(NC(=O)N2C3CCCC2C3)cc1-c1ccc(F)cn1` [Example 28, N-(4-ethyl-3-(5-fluoropyridin-2-yl)phenyl)-6-azabicyclo[3.1.1]heptane-6-carboxamide], the IC50 under setting [2] is 0.6 µM and the IC50 under setting [3] was 0.0001 to 1 µM.
As to `CCO[C@@H]1CC2C[C@H](C1)N2C(=O)Nc1ccc(C)c(-c2ccccn2)c1` [Example 84, cis-3-ethoxy-N-(4-methyl-3-(pyridin-2-yl)phenyl)-6-azabicyclo[3.1.1]heptane-6-carboxamide], the half-inhibitory concentration (IC50) under setting [1] was in the range of 1 to 10 µM and 1.6 µM corresponded to half-maximal inhibition under setting [2] (IC50).
As to `Cc1ccc(NC(=O)[C@H]2CC[C@@H](C(F)(F)F)N2c2ccccn2)cc1-c1ncc(F)cn1` [Example 276, (2R,5S)-N-[3-(5-fluoropyrimidin-2-yl)-4-methylphenyl]-1-pyridin-2-yl-5-(trifluoromethyl) pyrrolidine-2-carboxamide], the IC50 is 1 to 10 µM under setting [1] and 6.3 µM under setting [2].
Compound `COCC1COc2ccccc2CN1C(=O)Nc1ccc(C)c(-c2ncc(F)cn2)c1` (racemic) [Example 309, N-(3-(5-fluoropyrimidin-2-yl)-4-methylphenyl)-3-(methoxymethyl)-2,3-dihydrobenzo[f][1,4] oxazepine-4(5H)-carboxamide] yielded a 50% inhibitory concentration (IC50) under setting [1] of 1 to 10 µM and an IC50 under setting [2] of 1.1 µM.
`Cc1ccc(NC(=O)[C@H]2[C@@H]3CC(F)(F)C[C@@H]32)cc1-c1cccnn1` [Example 289, trans-3,3-difluoro-N-(4-methyl-3-pyridazin-3-ylphenyl)bicyclo[3.1.0] hexane-6-carboxamide]: the IC50 under setting [1] was above 10 µM and half-maximal inhibition under setting [2] (IC50) was put at 26 µM.
On to `Cc1ccc(NC(=O)CC2CCC2)cc1-c1ccc(F)cn1` [Example 164, 2-cyclobutyl-N-[3-(5-fluoropyridin-2-yl)-4-methylphenyl]acetamide], for which the IC50 was 1 to 10 µM under setting [1] and 1.4 µM under setting [2].
With `Cc1ccc(NC(=O)N2CC3CC(C)C2C3)cc1-c1ccccn1` (single isomer, unassigned) [Example 12, 6-methyl-N-(4-methyl-3-(pyridin-2-yl)phenyl)-2-azabicyclo[2.2.1]heptane-2-carboxamide], the IC50 is, setting by setting: under setting [1], 1 to 10 µM; under setting [2], 2 µM.
In the case of `Cc1ccc(NC(=O)N2C3CC2c2ncnn2C3)cc1-c1ccccn1` (stereo not shown) [Example 80, N-(4-methyl-3-pyridin-2-ylphenyl)-3,5,6,9-tetrazatricyclo[6.1.1.02,6]deca-2,4-diene-9-carboxamide], the IC50 reads like this: under setting [1], above 10 µM; under setting [2], 13 µM.
Turning to `Cc1ccc(NC(=O)[C@H]2C[C@H]3C[C@H]3N2Cc2ncccn2)cc1-c1ncc(F)cn1` [Example 261], the concentration for half-maximal inhibition (IC50) by setting is: under setting [1], above 10 µM; under setting [2], 34 µM.
For the compound `Cc1ccc(NC(=O)N2CC[C@@H]3[C@@H](C)[C@@H]3C2)cc1-c1ccccn1` (racemic) [Example 37, trans-7-methyl-N-(4-methyl-3-(pyridin-2-yl)phenyl)-3-azabicyclo[4.1.0]heptane-3-carboxamide], the IC50 runs as follows: under setting [2], 0.1 µM; under setting [3], 0.0001 to 1 µM.
Turning to `Cc1cc(Cl)c(NC(=O)N2C3CCCC2C3)cc1-c1ccccn1` [Example 82, N-(2-chloro-4-methyl-5-pyridin-2-ylphenyl)-6-azabicyclo[3.1.1]heptane-6-carboxamide], the half-maximal inhibitory concentration (IC50) is 1 to 10 µM under setting [1] and 1.5 µM under setting [2].
As to `O=C(Nc1ccc(C(F)(F)F)c(-c2ncc(F)cn2)c1)N1CCCCCC1` [Example 313, N-(3-(5-fluoropyrimidin-2-yl)-4-(trifluoromethyl)phenyl) azepane-1-carboxamide], the IC50 under setting [2] was 0.8 µM and the IC50 under setting [3] lay within 0.0001 to 1 µM.
`Cc1ccc(NC(=O)N2CC3CC2Cc2ccccc23)cc1-c1ccccn1` (stereo not shown) [Example 21, N-(4-methyl-3-(pyridin-2-yl)phenyl)-4,5-dihydro-1H-1,4-methanobenzo[d]azepine-3(2H)-carboxamide]: the 50% inhibitory concentration (IC50) is, setting by setting: under setting [1], 1 to 10 µM; under setting [2], 2.5 µM.
For `Cc1cnc(-c2cc(NC(=O)N3[C@@H]4C[C@@H](C)C[C@H]3C4)c(F)cc2Cl)nn1` [Example 320], the IC50 reads like this: under setting [2], 0.6 µM; under setting [3], 0.0001 to 1 µM.
As for `CO[C@H]1CCCN(C(=O)Nc2ccc(C(F)(F)F)c(-c3ncc(F)cn3)c2)CC1` [Example 307, (S)-N-(3-(5-fluoropyrimidin-2-yl)-4-(trifluoromethyl)phenyl)-4-methoxyazepane-1-carboxamide], the IC50 is, setting by setting: under setting [1], above 10 µM; under setting [2], 13 µM.
Take `Cc1ccc(NC(=O)N2CC(C)C2)cc1-c1ncc(F)cn1` [Example 232, N-[3-(5-fluoropyrimidin-2-yl)-4-methylphenyl]-3-methylazetidine-1-carboxamide]: the IC50 by setting is: under setting [1], above 10 µM; under setting [2], 20 µM.
As to `Cc1ccc(NC(=O)[C@@H]2CC2(F)F)cc1-c1ccc(C(F)(F)F)cn1` [Example 154, (1S)-2,2-difluoro-N-[4-methyl-3-[5-(trifluoromethyl)pyridin-2-yl]phenyl]cyclopropane-1-carboxamide], the half-maximal inhibitory concentration (IC50) is 1 to 10 µM under setting [1] and 9.9 µM under setting [2].
As for `Cc1ccc(-c2cc(NC(=O)[C@@H]3CC3(F)F)ccc2C)nc1` [Example 162, (1S)-2,2-difluoro-N-[4-methyl-3-(5-methylpyridin-2-yl)phenyl]cyclopropane-1-carboxamide], the half-maximal inhibitory concentration (IC50) was 1 to 10 µM under setting [1] and 2.5 µM under setting [2].
With `Cc1ccc(NC(=O)N2CC3CC3(C(F)(F)F)C2)cc1-c1ccccn1` (stereo not shown) [Example 97, N-(4-methyl-3-pyridin-2-ylphenyl)-1-(trifluoromethyl)-3-azabicyclo[3.1.0]hexane-3-carboxamide], the IC50 reads like this: under setting [1], above 10 µM; under setting [2], 11 µM.
Take `Cc1cc(F)cnc1-c1cccc(NC(=O)N2C3CCCC2C3)c1` [Example 81, N-[3-(5-fluoro-3-methylpyridin-2-yl)phenyl]-6-azabicyclo[3.1.1]heptane-6-carboxamide]: the IC50 by setting is: under setting [1], 1 to 10 µM; under setting [2], 3.4 µM.
Consider `CO[C@@H]1C[C@@H]2C[C@H](C1)N2C(=O)Nc1ccc(C)c(-c2ccccn2)c1` [Example 41, cis-3-methoxy-N-(4-methyl-3-(pyridin-2-yl)phenyl)-6-azabicyclo[3.1.1]heptane-6-carboxamide], for which 0.5 µM corresponded to half-maximal inhibition under setting [2] (IC50) and the IC50 under setting [3] was 0.0001 to 1 µM.
Take `Cc1ccc(NC(=O)N2C3C[C@@H](C#N)C[C@@H]2C3)cc1-c1ccccn1` [Example 75, trans-3-cyano-N-(4-methyl-3-(pyridin-2-yl)phenyl)-6-azabicyclo[3.1.1]heptane-6-carboxamide]: the concentration for half-maximal inhibition (IC50) is, setting by setting: under setting [2], 0.4 µM; under setting [3], 0.0001 to 1 µM.
As to `Cc1ccc(NC(=O)[C@H]2CC[C@@H](C)CN2c2ncccn2)cc1-c1ncccn1` (racemic) [Example 327], the half-inhibitory concentration (IC50) is, setting by setting: under setting [2], 0.5 µM; under setting [3], 0.0001 to 1 µM.
`O=C(Nc1ccc(C(F)(F)F)c(-c2ncc(F)cn2)c1)C1C2CCC1CC2` (stereo not shown) [Example 303, N-(3-(5-fluoropyrimidin-2-yl)-4-(trifluoromethyl)phenyl) bicyclo[2.2.1]heptane-e-7-carboxamide]: 0.5 µM corresponded to half-maximal inhibition under setting [2] (IC50) and the IC50 under setting [3] was in the range of 0.0001 to 1 µM.
On to `Cc1ccc(NC(=O)[C@@H]2CO[C@H](C(F)(F)F)CN2c2ccccn2)cc1-c1ncc(F)cn1` (racemic) [Example 272, cis-N-(3-(5-fluoropyrimidin-2-yl)-4-methylphenyl)-4-(pyridin-2-yl)-6-(trifluoromethyl) morpholine-3-carboxamide], for which the 50% inhibitory concentration (IC50) is, setting by setting: under setting [1], 1 to 10 µM; under setting [2], 1.1 µM.

Source of the values: patent US20250171462A1 (NICO Therapeutics, Inc., priority 2022, published 2025).
